# Experimental data reported in patent US12216119B2, “IGF-1 analysis, adjustment and disease management of non-neurological and/or neurological conditions” (THE CGP LAB LIMITED, priority 2017, dated 2025).
# Legend:
# [1] = Vitamin C added to BCA: efficacy of BCA to increase cGP levels; details: added to BCA as ascorbic acid
# hypertensive rats = details: cited from earlier work
# [2] = tested on: rats with ischemic brain injury; details: cited from earlier work
SMILES,effect on the efficacy of BCA to increase the levels of cGP [1],systemic blood pressure (hypertensive rats),ischemic brain injury [2]
"O=C1O[C@H]([C@@H](O)CO)C(O)=C1O [Vitamin C, ascorbic acid]",negative effect,,
"O=C1NCC(=O)N2CCC[C@@H]12 [cGP, cyclic glycine-proline]",,normalises the systemic blood pressure,prevents ischemic brain injury
